Experiment [1] concerns the target T1, hsst5 (Homo sapiens, UniProt P35346).
T1 construct: expressed in transfected cells
Description: Somatostatin receptor radioligand binding assay, hsst5. The following applies: hsst5 Ki, CHO-K1 membranes, [125I-Tyr11]SS-14. The method, boiled down:
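Membranes from CHO-K1 cells stably expressing hsst5, incubated 90 min at 25 °C with 0.05 nM [125I-Tyr11]SS-14 in 50 mM HEPES pH 7.4 with BSA, MgCl2 and protease inhibitors. Bound ligand collected by filtration. Non-specific binding defined with 1000 nM SS-14.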

Experiment [2] deals with T2, D2 (Homo sapiens, UniProt P14416).
T2 construct: expressed in transfected cells; host or cells: HEK-293, transient
Description: cAMP Responsive Element-Luciferase reporter gene assay, D2-monotransfected HEK-293 cells. Particulars: read-out: IC50 value of cAMP inhibition. Type of experiment: cell-based. The method, then:
A cAMP Responsive Element-Luciferase reporter gene assay in HEK-293 cells was used in this assay, wherein said HEK-293 cells were transiently transfected with D2 and/or sst2 cDNA. […] In sst2-monotransfected cells, the IC50 value of cAMP inhibition of Example 1 was 0.04 nM.
(Reporter assays use an easily measured gene product as a stand-in for the process of interest.)

In experiment [3] the target is hDA2. Description: Dopamine-2 receptor radioligand binding assay. The following applies: [3H]spiperone. Set-up: species or system human.

The values that follow come from patent publication US20110065632A1, “PHARMACEUTICAL COMPOSITIONS OF SOMATOSTATIN-DOPAMINE CONJUGATES” (priority 2008, published 2011).

The structures appear in SMILES notation.

T1 sequence (P35346 whole entry): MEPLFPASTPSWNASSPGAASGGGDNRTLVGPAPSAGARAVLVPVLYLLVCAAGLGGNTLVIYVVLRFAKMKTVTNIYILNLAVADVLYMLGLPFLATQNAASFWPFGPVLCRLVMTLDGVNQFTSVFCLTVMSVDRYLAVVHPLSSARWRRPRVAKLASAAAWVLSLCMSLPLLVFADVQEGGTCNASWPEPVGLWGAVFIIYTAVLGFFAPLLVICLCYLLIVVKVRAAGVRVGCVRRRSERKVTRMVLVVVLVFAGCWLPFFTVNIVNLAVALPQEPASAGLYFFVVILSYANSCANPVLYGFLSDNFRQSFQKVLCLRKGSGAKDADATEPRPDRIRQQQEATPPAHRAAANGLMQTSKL
T2 sequence (P14416 whole entry): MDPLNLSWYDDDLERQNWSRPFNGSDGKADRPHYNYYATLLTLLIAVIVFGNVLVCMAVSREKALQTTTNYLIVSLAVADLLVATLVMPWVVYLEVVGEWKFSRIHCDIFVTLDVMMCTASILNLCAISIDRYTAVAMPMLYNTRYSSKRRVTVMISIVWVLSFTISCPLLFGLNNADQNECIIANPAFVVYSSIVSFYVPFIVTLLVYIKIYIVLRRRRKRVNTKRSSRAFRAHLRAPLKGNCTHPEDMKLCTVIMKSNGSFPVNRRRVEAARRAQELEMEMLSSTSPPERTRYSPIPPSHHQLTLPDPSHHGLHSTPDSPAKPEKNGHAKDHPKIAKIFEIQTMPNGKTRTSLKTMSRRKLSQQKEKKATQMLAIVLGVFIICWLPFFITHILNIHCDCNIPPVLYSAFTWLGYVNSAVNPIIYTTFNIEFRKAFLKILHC

As a reminder, the Ki is the equilibrium dissociation constant of an inhibitor or competing ligand from its target. High values mean a looser hold on the target, low ones a stronger hold on the target. In general, IC50 refers to the midpoint of a concentration-inhibition curve. `CCCN1C[C@H](CSCC(=O)NCCCC[C@@H](NC(=O)CSC[C@@H]2C[C@@H]3c4cccc5[nH]cc(c45)C[C@H]3N(CCC)C2)C(=O)N[C@H]2CSSC[C@@H](C(=O)N[C@H](C(N)=O)[C@@H](C)O)NC(=O)[C@H](CC)NC(=O)[C@H](CCCCN)NC(=O)[C@@H](Cc3c[nH]c4ccccc34)NC(=O)[C@H](Cc3ccc(O)cc3)NC2=O)C[C@@H]2c3cccc4[nH]cc(c34)C[C@H]21` [Example 1, Dop2-DLys(Dop2)-cyclo[Cys-Tyr-DTrp-Lys-Abu-Cys]-Thr-NH2]: the inhibition constant (Ki) was determined as 41.5 nM in experiment [1] and 15.8 nM in experiment [3]. Further, in experiment [2], the IC50 was 0.02 nM.
